Experimental data taken from ChEMBL document CHEMBL2074510, “Defective ATP-dependent bile canalicular transport of organic anions in mutant (TR-) rats with conjugated hyperbilirubinemia” (Proc Natl Acad Sci U S A, 1990).

Molecular target: ATP-binding cassette sub-family C member 2 (Rattus norvegicus, UniProt Q63120)
Experiment: TP_TRANSPORTER: uptake in bile canalicular membrane vesicles from Wistar/TR- rat
Format: functional, cell membranes, Bile canalicular membrane vesicle

Sequence of ATP-binding cassette sub-family C member 2 (Q63120 whole entry): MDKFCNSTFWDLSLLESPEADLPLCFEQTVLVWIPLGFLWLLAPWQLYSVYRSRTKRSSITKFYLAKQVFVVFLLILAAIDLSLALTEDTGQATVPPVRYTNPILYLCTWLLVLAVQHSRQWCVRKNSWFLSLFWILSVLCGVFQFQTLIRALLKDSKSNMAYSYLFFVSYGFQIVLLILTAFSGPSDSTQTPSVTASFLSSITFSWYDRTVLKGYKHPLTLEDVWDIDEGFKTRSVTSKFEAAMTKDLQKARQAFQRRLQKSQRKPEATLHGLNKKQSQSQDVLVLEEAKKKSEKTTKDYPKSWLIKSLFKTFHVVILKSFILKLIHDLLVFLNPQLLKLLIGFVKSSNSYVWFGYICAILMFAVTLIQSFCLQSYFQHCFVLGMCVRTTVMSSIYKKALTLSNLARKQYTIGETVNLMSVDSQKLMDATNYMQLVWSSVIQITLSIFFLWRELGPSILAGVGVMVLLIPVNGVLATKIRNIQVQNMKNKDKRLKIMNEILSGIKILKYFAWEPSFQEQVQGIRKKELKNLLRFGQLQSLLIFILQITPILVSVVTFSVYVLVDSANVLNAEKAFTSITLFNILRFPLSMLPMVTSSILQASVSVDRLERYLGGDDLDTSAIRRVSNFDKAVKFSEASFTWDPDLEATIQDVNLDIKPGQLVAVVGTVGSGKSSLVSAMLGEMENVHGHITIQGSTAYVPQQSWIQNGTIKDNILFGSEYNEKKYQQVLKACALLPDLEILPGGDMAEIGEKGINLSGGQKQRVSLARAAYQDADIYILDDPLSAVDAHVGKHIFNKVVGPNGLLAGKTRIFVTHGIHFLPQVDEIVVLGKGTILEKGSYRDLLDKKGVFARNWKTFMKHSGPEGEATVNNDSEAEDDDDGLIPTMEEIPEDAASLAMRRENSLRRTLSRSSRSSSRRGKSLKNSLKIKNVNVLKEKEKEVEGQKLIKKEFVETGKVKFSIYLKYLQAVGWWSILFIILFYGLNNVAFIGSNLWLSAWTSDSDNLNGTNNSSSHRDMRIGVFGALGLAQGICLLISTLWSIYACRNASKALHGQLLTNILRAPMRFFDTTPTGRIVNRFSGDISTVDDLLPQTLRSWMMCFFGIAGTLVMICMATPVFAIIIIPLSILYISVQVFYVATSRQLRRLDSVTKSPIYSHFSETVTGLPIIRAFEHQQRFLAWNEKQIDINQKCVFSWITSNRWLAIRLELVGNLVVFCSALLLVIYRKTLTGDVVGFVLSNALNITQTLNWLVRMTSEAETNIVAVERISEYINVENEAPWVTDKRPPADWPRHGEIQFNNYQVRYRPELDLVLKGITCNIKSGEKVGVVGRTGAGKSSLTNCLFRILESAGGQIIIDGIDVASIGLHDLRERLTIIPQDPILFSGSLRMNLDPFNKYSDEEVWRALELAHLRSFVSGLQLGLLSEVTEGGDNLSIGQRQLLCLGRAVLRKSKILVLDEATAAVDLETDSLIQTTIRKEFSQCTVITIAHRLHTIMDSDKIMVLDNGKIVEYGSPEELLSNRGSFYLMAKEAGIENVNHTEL

- Activity: substrate [+]
Structure (SMILES): N[C@@H](CCC(=O)N[C@@H](CSc1c(Br)c(Br)c2c(c1Br)C(=O)OC2(c1ccc(O)c(S(=O)(=O)O)c1)c1ccc(O)c(S(=O)(=O)O)c1)C(=O)NCC(=O)O)C(=O)O
